Where a SMILES comes first, the peptide text is derived from it. Bridges are numbered along the chain shown (N, C = ends).
Tested on: Caspase cascade pathway in HL-60 cells
Assay: Gene expression profiling and Oncobox pathway analysis
Format: cell-based, human
Details: versus intact cells, Oncobox
Procedure: To get a deeper molecular insight into the mechanisms of cell death induced by PM III, we profiled gene expression in the PM III treated (1.25, 2.5, and 5 µM) and intact HL-60 cells. Gene expression profiles were further analyzed using the Oncobox bioinformatical platform to measure activation levels of 376 intracellular signaling pathways. We found a significant inhibition of the Caspase cascade (Figure 6), while the TRAF (tumor necrosis factor receptor (TNF-R)-associated factor) pathway was strongly activated (Figure 7) following the PM III treatment. An additional line of evidence for the non-apoptotic mechanism of the PM III mediated activity was provided by the PTEN pathway. […] The activation levels of all signaling pathways profiled in this study and case-to-normal ratios for the respective genes are shown in Supplementary Table S1. Taken together, these facts rather argue for a non-apoptotic mode of the PM III action.
RNA extraction was performed immediately before preparation of sequencing libraries using a QIAGEN RNeasy Kit (Qiagen, Venlo, Netherlands) following the manufacturer’s protocol. Then, the RNA Integrity Number (RIN) was measured using an Agilent 2100 bio-Analyzer. Agilent RNA 6000 Nano or Qubit RNA Assay Kits were used to measure RNA concentration. A KAPA RNA Hyper with RiboErase (KAPA Biosystems, Wilmington, MA, USA) kit was used for further depletion of ribosomal RNA. […] Library concentrations and quality were measured using a Qubit ds DNA HS Assay kit (Life Technologies, Carlsbad, CA, USA) and Agilent Tapestation (Agilent, Santa Clara, CA, USA). RNA sequencing was performed using Illumina HiSeq 3000 equipment for single-end sequencing, 50 bp read length, for approximately 30 million raw reads per each sample. […]
The SABiosciences knowledge base was used to determine structures of intracellular molecular pathways as described previously. […] CNRs were calculated as the ratios of expression levels of a gene in the experimental samples to average expression levels in the control samples. […]

SMILES: CC(C)[C@@H]1NC(=O)[C@H](CCCNC(=N)N)NC(=O)[C@H](Cc2ccccc2)NC(=O)[C@@H](NC(=O)CNC(=O)[C@H](CCCNC(=N)N)NC(=O)[C@@H](N)CCCNC(=N)N)CSSC[C@@H](C(=O)N[C@@H](CCCNC(=N)N)C(=O)O)NC(=O)[C@H](CCCNC(=N)N)NC(=O)[C@H](CCC(N)=O)NC(=O)[C@H](Cc2ccccc2)NC(=O)[C@@H]2CSSC[C@H](NC1=O)C(=O)N[C@@H](Cc1ccc(O)cc1)C(=O)N[C@@H](CCCNC(=N)N)C(=O)NCC(=O)N[C@@H](Cc1ccccc1)C(=O)N2 [PM III, polyphemusin III] (H-RRGCFRVCYRGFCFQRCR-OH; disulfide 4-17, 8-13 (inferred); N-terminus assumed)
- Caspase Cascade: PAS (pathway activation strength) (HL-60, 1.25 μM): -13.08
- Caspase Cascade: PAS (pathway activation strength) (HL-60, 2.5 μM): -13.96
- Caspase Cascade: PAS (pathway activation strength) (HL-60, 5 μM): -16.64
